Test results published in ChEMBL document CHEMBL5390218, “Benzimidazole derivatives as tubulin polymerization inhibitors: Design, synthesis and in vitro cytotoxicity studies” (Bioorg Med Chem Lett, 2023).
Active and inactive are the calls of the source. The calls are words filed in the database; no cut-off is given here.

What was measured:
SK-MEL-28 [1] = test: Induction of cell cycle arrest in human SK-MEL-28 cells assessed as accumulation of cells at G2 phase at 5 uM measured after 48 hrs by PI staining based flow cytometry (reference value: 9.17%); format: functional
SK-MEL-28 [2] = test: Anticancer activity against human SK-MEL-28 cells assessed as inhibition in cell growth measured after 72 hrs by MTT assay; format: functional, cell-based; settings: SK-MEL-28, 72 h
SK-MEL-28 [3] = test: Induction of apoptosis in human SK-MEL-28 cells assessed as early apoptotic cells at 5 uM incubated for 24 hrs by Annexin V-FITC/PI dual staining based flow cytometry analysis (reference value: 0.0%); format: functional
SK-MEL-28 [4] = test: Induction of apoptosis in human SK-MEL-28 cells assessed as necrotic cells at 2.5 uM incubated for 24 hrs by Annexin V-FITC/PI staining based flow cytometry analysis (reference value: 0.1%); format: functional
SK-MEL-28 [5] = test: Induction of morphological changes in human SK-MEL-28 cells assessed as chromatin condensation by ethidium bromide/acridine orange staining based analysis; format: functional, cell-based; settings: dose 1-5 µM
SK-MEL-28 [6] = test: Induction of mitochondrial membrane potential changes in human SK-MEL-28 cells assessed as J-aggregate level by measuring red fluorescence intensity at 1 uM incubated for 48 hrs by JC-1 staining based analysis (reference value: 98.9%); format: functional
[7] = Selectivity index, ratio of IC50 for NRK-52E cells to ratio of IC50 for mouse B16-F10 cells; format: toxicity; settings: NRK-52E cells versus B16-F10 cells, read-out: Selectivity Index
Tubulin (Homo sapiens) [8] = molecular target: T1, Tubulin (Homo sapiens) (UniProt P68371+Q9H4B7+P0DPH7+P68366+Q13509+Q71U36+P04350+Q3ZCM7+P07437+P68363+Q9BQE3+Q6PEY2+Q13885+Q9BVA1+Q9BUF5); test: Inhibition of tubulin polymerization (unknown origin) at 12 uM incubated for 1 hr relative to control; format: protein-complex assay
SK-MEL-28 [9] = test: Induction of cell cycle arrest in human SK-MEL-28 cells assessed as accumulation of cells at G0-G1 phase at 1 uM measured after 48 hrs by PI staining based flow cytometry (reference value: 74.32%); format: functional
SK-MEL-28 [10] = test: Induction of apoptosis in human SK-MEL-28 cells assessed as live cells at 2.5 uM incubated for 24 hrs by Annexin V-FITC/PI dual staining based flow cytometry analysis (reference value: 99.9%); format: functional
Tubulin = test: (§1) Inhibition of tubulin polymerization (unknown origin) incubated for 1 hr; format: protein-complex assay, Homo sapiens
Tubulin (Homo sapiens) [11] = molecular target: T1, Tubulin (Homo sapiens); test: as §1; format: protein-complex assay; settings: dose 0.75-12 µM
SK-MEL-28 [12] = test: Induction of morphological changes in human SK-MEL-28 cells assessed as bright fragmented nuclei at 1 to 5 uM measured after 48 hrs DAPI staining based analysis; format: functional, cell-based; settings: dose 1-5 µM
SK-MEL-28 [13] = test: Induction of cell cycle arrest in human SK-MEL-28 cells assessed as accumulation of cells at G2 phase at 1 uM measured after 48 hrs by PI staining based flow cytometry (reference value: 9.17%); format: functional
SK-MEL-28 [14] = test: Inhibition of colony formation in human SK-MEL-28 cells incubated for 48 hrs by crystal violet staining based colony formation assay; format: functional, cell-based; settings: dose 1-5 µM
SK-MEL-28 [15] = test: Induction of morphological changes in human SK-MEL-28 cells assessed as cell shrinkage by ethidium bromide/acridine orange staining based analysis; format: functional; settings: dose 1-5 µM
SK-MEL-28 [16] = test: Induction of mitochondrial membrane potential depolarization in human SK-MEL-28 cells assessed as J-monomer level by measuring green fluorescence intensity at 5 uM incubated for 48 hrs by JC-1 staining based analysis (reference value: 0.8%); format: functional
SK-MEL-28 [17] = test: Induction of apoptosis in human SK-MEL-28 cells assessed as early apoptotic cells at 2.5 uM incubated for 24 hrs by Annexin V-FITC/PI dual staining based flow cytometry analysis (reference value: 0.0%); format: functional
SK-MEL-28 [18] = test: Induction of apoptosis in human SK-MEL-28 cells assessed as live cells at 5 uM incubated for 24 hrs by Annexin V-FITC/PI dual staining based flow cytometry analysis (reference value: 99.9%); format: functional
MCF7 = test: Anticancer activity against human MCF7 cells assessed as inhibition in cell growth measured after 72 hrs by MTT assay; format: functional, cell-based; settings: MCF7, 72 h
SK-MEL-28 [19] = test: Induction of apoptosis in human SK-MEL-28 cells assessed as late apoptotic cells at 5 uM incubated for 24 hrs by Annexin V-FITC/PI dual staining based flow cytometry analysis (reference value: 0.1%); format: functional
SK-MEL-28 [20] = test: Induction of apoptosis in human SK-MEL-28 cells assessed as live cells at 1 uM incubated for 24 hrs by Annexin V-FITC/PI dual staining based flow cytometry analysis (reference value: 99.9%); format: functional
SK-MEL-28 [21] = test: Induction of cell cycle arrest in human SK-MEL-28 cells assessed as accumulation of cells at G0-G1 phase at 5 uM measured after 48 hrs by PI staining based flow cytometry (reference value: 74.32%); format: functional
HCT-116 = test: Anticancer activity against human HCT-116 cells assessed as inhibition in cell growth measured after 72 hrs by MTT assay; format: functional, cell-based; settings: HCT-116, 72 h
SK-MEL-28 [22] = test: Induction of cell cycle arrest in human SK-MEL-28 cells assessed as accumulation of cells at G0-G1 phase at 2.5 uM measured after 48 hrs by PI staining based flow cytometry (reference value: 74.32%); format: functional
SK-MEL-28 [23] = test: Inhibition of cell migration in human SK-MEL-28 cells at 1 to 5 uM incubated for 0 to 48 hrs by wound healing assay; format: functional, cell-based; settings: dose 1-5 µM, time 0-48 hrs
SK-MEL-28 [24] = test: Induction of apoptosis in human SK-MEL-28 cells assessed as early apoptotic cells at 1 uM incubated for 24 hrs by Annexin V-FITC/PI dual staining based flow cytometry analysis (reference value: 0.0%); format: functional
Tubulin (Homo sapiens) [25] = molecular target: T1, Tubulin (Homo sapiens); test: Inhibition of tubulin polymerization (unknown origin) at 0.75 uM incubated for 1 hr relative to control; format: protein-complex assay
SK-MEL-28 [26] = test: Induction of apoptosis in human SK-MEL-28 cells assessed as necrotic cells at 1 uM incubated for 24 hrs by Annexin V-FITC/PI staining based flow cytometry analysis (reference value: 0.1%); format: functional
SK-MEL-28 [27] = test: Induction of morphological changes in human SK-MEL-28 cells assessed as bright pyknotic nuclei at 1 to 5 uM measured after 48 hrs DAPI staining based analysis; format: functional, cell-based; settings: dose 1-5 µM
SK-MEL-28 [28] = test: Induction of cell cycle arrest in human SK-MEL-28 cells assessed as accumulation of cells at G2 phase at 2.5 uM measured after 48 hrs by PI staining based flow cytometry (reference value: 9.17%); format: functional
SK-MEL-28 [29] = test: Induction of cell cycle arrest in human SK-MEL-28 cells assessed as accumulation of cells at S phase at 1 uM measured after 48 hrs by PI staining based flow cytometry (reference value: 16.5%); format: functional
SK-MEL-28 [30] = test: Induction of ROS generation in human SK-MEL-28 cells by DCFDA staining based analysis; format: functional, cell-based; settings: dose 1-5 µM
[31] = Selectivity index, ratio of IC50 for NRK-52E cells to ratio of IC50 for human A549 cells; format: toxicity; settings: rat (NRK-52E), NRK-52E cells versus A549 cells, read-out: Selectivity Index
SK-MEL-28 [32] = test: Induction of morphological changes in human SK-MEL-28 cells assessed as membrane blebbing by ethidium bromide/acridine orange staining based analysis; format: functional, cell-based; settings: dose 1-5 µM

**Q.** What does the source list for `COc1cc(-c2nc3cc(F)ccc3[nH]2)ccc1OCC(=O)N1CCc2ccccc21`?
**A.** Activity (SK-MEL-28 [1]): 26.05%; IC50 (SK-MEL-28 [2]): 2.69 µM; Activity (SK-MEL-28 [3]): 1.3%; Activity (SK-MEL-28 [4]): 1%; Activity (SK-MEL-28 [5]): Dose-Dependent Effect; Activity (SK-MEL-28 [6]): 97.9%; selectivity ratio [7]: 17.4; inhibition (Tubulin (Homo sapiens) [8]): 64.1%; Activity (SK-MEL-28 [9]): 61.71%; Activity (SK-MEL-28 [10]): 52.5%; IC50 (Tubulin): 5.65 µM; inhibition (Tubulin (Homo sapiens) [11]): Dose-Dependent Effect; Activity (SK-MEL-28 [12]): Active; Activity (SK-MEL-28 [13]): 15.96%; inhibition (SK-MEL-28 [14]): Dose-Dependent Effect; Activity (SK-MEL-28 [15]): Dose-Dependent Effect; Activity (SK-MEL-28 [16]): 14.9%; Activity (SK-MEL-28 [17]): 26.4%; Activity (SK-MEL-28 [18]): 50.7%; IC50 (MCF7): 17.9 µM; Activity (SK-MEL-28 [19]): 35.1%; Activity (SK-MEL-28 [20]): 28.5%; Activity (SK-MEL-28 [21]): 49.28%; IC50 (HCT-116): 6.98 µM; Activity (SK-MEL-28 [22]): 51.45%; inhibition (SK-MEL-28 [23]): Active; Activity (SK-MEL-28 [24]): 60.8%; inhibition (Tubulin (Homo sapiens) [25]): 20.4%; Activity (SK-MEL-28 [26]): 0%; Activity (SK-MEL-28 [27]): Active; Activity (SK-MEL-28 [28]): 24.82%; Activity (SK-MEL-28 [29]): 22.3%; Activity (SK-MEL-28 [30]): Dose-Dependent Effect; selectivity ratio [31]: 14; Activity (SK-MEL-28 [32]): Dose-Dependent Effect
